Measurements reported in US12692254B2, “Benzimidazole inhibitors of PAD enzymes” (BRISTOL-MYERS SQUIBB COMPANY, priority 2018, dated 2026).
pIC50: −log10 of the molar value.

Each compound was assayed against human PAD4 (hPAD4) (Homo sapiens, UniProt Q9UM07) (assay: RFMS human PAD4 functional assay (rapid-fire mass spectrum)). Conditions: 5 nM hPAD4 enzyme, 250 μM BAEE, 50 μM Calcium; 30 min preincubation, 90 min reaction at 37° C.
Chain of human PAD4 (hPAD4) (Q9UM07 whole entry): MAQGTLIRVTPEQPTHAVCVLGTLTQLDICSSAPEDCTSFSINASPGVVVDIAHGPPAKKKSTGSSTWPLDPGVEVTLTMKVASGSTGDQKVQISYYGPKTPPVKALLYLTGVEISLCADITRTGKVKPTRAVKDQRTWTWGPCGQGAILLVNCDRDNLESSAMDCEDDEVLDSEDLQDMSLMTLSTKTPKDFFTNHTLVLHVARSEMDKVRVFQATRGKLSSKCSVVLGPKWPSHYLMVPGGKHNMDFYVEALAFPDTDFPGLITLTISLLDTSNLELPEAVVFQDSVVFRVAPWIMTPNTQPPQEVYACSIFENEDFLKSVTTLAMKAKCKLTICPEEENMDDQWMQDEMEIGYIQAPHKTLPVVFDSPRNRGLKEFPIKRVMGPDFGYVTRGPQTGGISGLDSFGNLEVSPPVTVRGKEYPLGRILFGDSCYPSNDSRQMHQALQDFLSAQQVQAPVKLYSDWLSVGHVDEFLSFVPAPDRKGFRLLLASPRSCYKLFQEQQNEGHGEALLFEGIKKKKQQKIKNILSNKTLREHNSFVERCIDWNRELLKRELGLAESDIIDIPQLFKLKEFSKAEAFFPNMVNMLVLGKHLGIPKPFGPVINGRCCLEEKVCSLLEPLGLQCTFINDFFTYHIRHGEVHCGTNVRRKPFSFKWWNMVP
Format: biochemical
Outline: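 PAD4 (10 nM) preincubated 30 min with compound (top final 50 μM), then BAEE substrate added in pH 7.5 HEPES buffer with DTT, 50 μM calcium, TPEN; 90 min at 37° C. After TCA quench, citrulline derivatized with phenyl glyoxal (4 mM final, 30 min, 37° C) and quantified by RapidFire MS against internal standard.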
Compound `COc1cc(C(=O)N2C[C@H]3CC[C@@H]2[C@@H]3N)cc2nc(-c3cc4ccccc4n3CC3CC3)n(CC3CN(C(=O)c4ccncc4)C3)c12` [Example 138, (1R,4R,7R)-2-{2-[1-(cyclopropylmethyl)-1H-indol-2-yl]-7-methoxy-1-{[1-(pyridine-4-carbonyl)azetidin-3-yl]methyl}-1H-1,3-benzodiazole-5-carbonyl}-2-azabicyclo[2.2.1]heptan-7-amine] has a pIC50 of 7.96. For `COc1cc(C(=O)N2CC3CCC2[C@@H]3N)cc2nc(-c3cc4ccccc4n3CC3CC3)n(CC3CN(C(=O)C4CCC(F)(F)C4)C3)c12` (stereo partly drawn) [Example 139, (1R,4R,7R)-2-{2-[1-(cyclopropylmethyl)-1H-indol-2-yl]-1-{[1-(3,3-difluorocyclopentanecarbonyl)aze-tidin-3-yl]methyl}-7-methoxy-1H-1,3-benzodiazole-5-carbonyl}-2-azabicyclo[2.2.1]heptan-7-amine], the pIC50 was 7.92. For `COc1cc(C(=O)N2C[C@H]3CC[C@@H]2[C@@H]3N)cc2nc(-c3cc4ccccc4n3CC3CC3)n(CC3CN(C(=O)c4ccc(O)cc4)C3)c12` [Example 140, 4-[3-({5-[(1R,4R,7R)-7-amino-2-azabicyclo[2.2.1]heptane-2-carbonyl]-2-[1-(cyclopropylmethyl)-1H-indol-2-yl]-7-methoxy-1H-1,3-benzodiazol-1-yl}methyl)azetidine-1-carbonyl]phenol], the pIC50 was 7.85. `COc1cc(C(=O)N2C[C@H]3CC[C@@H]2[C@@H]3N)cc2nc(-c3cc4ccccc4n3CC3CC3)n(CC3CN(C(=O)c4cccc(C#N)c4)C3)c12` [Example 141, 3-[3-({5-[(1R,4R,7R)-7-amino-2-azabicyclo[2.2.1]heptane-2-carbonyl]-2-[1-(cyclopropylmethyl)-1H-indol-2-yl]-7-methoxy-1H-1,3-benzodiazol-1-yl}methyl)azetidine-1-carbonyl]benzonitrile] gave a pIC50 of 7.85. `COc1cc(C(=O)N2C[C@H]3CC[C@@H]2[C@@H]3N)cc2nc(-c3cc4ccccc4n3CC3CC3)n(CC3CN(C(=O)c4nnn(C)n4)C3)c12` [Example 142, (1R,4R,7R)-2-{2-[1-(cyclopropylmethyl)-1H-indol-2-yl]-7-methoxy-1-{[1-(2-methyl-2H-1,2,3,4-tetrazole-5-carbonyl)azetidin-3-yl]methyl}-1H-1,3-benzodiazole-5-carbonyl}-2-azabicyclo[2.2.1]heptan-7-amine] was tested, and the pIC50 was 7.85. Compound `N[C@@H]1C2CCC1N(C(=O)c1cc(Cl)c3c(c1)nc(-c1cc4ccccc4n1CC1CC1)n3CC1CN(C(=O)c3ccccc3)C1)C2` (stereo partly drawn) [Example 143, (1R,4R,7R)-2-{1-[(1-benozylazetidin-3-yl)methyl]-7-chloro-2-[1-(cyclopropylmethyl)-1H-indol-2-yl]-1H-1,3-benzodiazole-5-carbonyl}-2-azabicyclo[2.2.1]heptan-7-amine] has a pIC50 of 7.64. `COc1cc(C(=O)N2C[C@H]3CC[C@@H]2[C@@H]3N)cc2nc(-c3cc4ccccc4n3CC3CC3)n(CC3CN(C(=O)C4CCCC4)C3)c12` [Example 144, (1R,4R,7R)-2-{1-[(1-cyclopentanecarbonylazetidin-3-yl)methyl]-2-[1-(cyclopropylmethyl)-1H-indol-2-yl]-7-methoxy-1H-1,3-benzodiazole-5-carbonyl}-2-azabicyclo[2.2.1]heptan-7-amine] was tested, and the pIC50 was 7.77. `COc1cc(C(=O)N2C[C@H]3CC[C@@H]2[C@@H]3N)cc2nc(-c3cc4ccccc4n3CC3CC3)n(CC3CN(C(=O)c4ccccc4)C3)c12` [Example 145, (1R,4R,7R)-2-{1-[(1-benzoylazetidin-3-yl)methyl]-2-[1-(cyclopropylmethyl)-1H-indol-2-yl]-7-methoxy-1H-1,3-benzodiazole-5-carbonyl}-2-azabicyclo[2.2.1]heptan-7-amine] was tested, and the pIC50 was 7.74. Work on `COc1cc(C(=O)N2C[C@H]3CC[C@@H]2[C@@H]3N)cc2nc(-c3cc4ccccc4n3CC3CC3)n(CC3CN(C(=O)c4ccccc4Cl)C3)c12` [Example 146, (1R,4R,7R)-2-(1-{[1-(2-chlorobenzoyl)azetidin-3-yl]methyl}-2-[1-(cyclopropylmethyl)-1H-indol-2-yl]-7-methoxy-1H-1,3-benzodiazole-5-carbonyl)-2-azabicyclo[2.2.1]heptan-7-amine] yielded a pIC50 of 7.74. Work on `COc1cc(C(=O)N2C[C@H]3CC[C@@H]2[C@@H]3N)cc2nc(-c3cc4ccccc4n3CC3CC3)n(CC3CN(C(=O)c4ccc(O)cc4F)C3)c12` [Example 147, 4-[3-({5-[(1R,4R,7R)-7-amino-2-azabicyclo[2.2.1]heptane-2-carbonyl]-2-[1-(cyclopropylmethyl)-1H-indol-2-yl]-7-methoxy-1H-1,3-benzodiazol-1-yl}methyl)azetidine-1-carbonyl]-3-fluorophenol] yielded a pIC50 of 7.72. `COc1cc(C(=O)N2C[C@H]3CC[C@@H]2[C@@H]3N)cc2nc(-c3cc4ccccc4n3CC3CC3)n(CC3CN(C(=O)c4cccn4C)C3)c12` [Example 148, (1R,4R,7R)-2-{2-[1-(cyclopropylmethyl)-1H-indol-2-yl]-7-methoxy-1-{[1-(1-methyl-1H-pyrrole-2-carbonyl)azetidin-3-yl]methyl}-1H-1,3-benzodiazole-5-carbonyl}-2-azabicyclo[2.2.1]heptan-7-amine] gave a pIC50 of 7.72. For `COc1cc(C(=O)N2C[C@H]3CC[C@@H]2[C@@H]3N)cc2nc(-c3cc4ccccc4n3CC3CC3)n(CC3CN(C(=O)c4ccc(-c5ccc(O)cc5)cc4)C3)c12` [Example 149, 4′-[3-({5-[(1R,4R,7R)-7-amino-2-azabicyclo[2.2.1]heptane-2-carbonyl]-2-[1-(cyclopropylmethyl)-1H-indol-2-yl]-7-methoxy-1H-1,3-benzodiazol-1-yl}methyl)azetidine-1-carbonyl]-[1,1′-biphenyl]-4-ol], the pIC50 was 7.72. `N#Cc1ccc(C(=O)N2CC(Cn3c(-c4cc5ccccc5n4CC4CC4)nc4cc(C(=O)N5C[C@H]6CC[C@@H]5[C@@H]6N)cc(Cl)c43)C2)cc1` [Example 150, 4-[3-({5-[(1R,4R,7R)-7-amino-2-azabicyclo[2.2.1]heptane-2-carbonyl]-7-chloro-2-[1-(cyclopropylmethyl)-1H-indol-2-yl]-1H-1,3-benzodiazol-1-yl}methyl)azetidine-1-carbonyl]benzonitrile] was tested, and the pIC50 was 7.70. `COc1cc(C(=O)N2C[C@H]3CC[C@@H]2[C@@H]3N)cc2nc(-c3cc4ccccc4n3CC3CC3)n(CC3CN(C(=O)c4ccc(C(=O)O)cc4)C3)c12` [Example 151, 4-[3-({5-[(1R,4R,7R)-7-amino-2-azabicyclo[2.2.1]heptane-2-carbonyl]-2-[1-(cyclopropylmethyl)-1H-indol-2-yl]-7-methoxy-1H-1,3-benzodiazol-1-yl}methyl)azetidine-1-carbonyl]benzoic acid] showed a pIC50 of 7.70. `COc1cc(C(=O)N2C[C@H](N)C[C@@H](F)C2)cc2nc(-c3cc4ccccc4n3CC3CC3)n(CC3CN(C(=O)c4cc(C#N)ccc4F)C3)c12` [Example 152, 3-[3-({5-[(3R,5R)-3-amino-5-fluoropiperidine-1-carbonyl]-2-[1-(cyclopropylmethyl)-1H-indol-2-yl]-7-methoxy-1H-1,3-benzodiazol-1-yl}methyl)azetidine-1-carbonyl]-4-fluorobenzonitrile] was tested, and the pIC50 was 7.68.
